Data taken from patent publication US11478558B2, “Prostate-specific membrane antigen targeted high-affinity agents for endoradiotherapy of prostate cancer” (The Johns Hopkins University, priority 2017, dated 2022).

Assays:
[1] = Octanol/water partition coefficient; format: physicochemical; conditions: Table 1
[2] = biological target: PSMA (Homo sapiens (Human), UniProt Q04609); assay: PSMA binding affinity
[3] = system: PSMA(+) PC3 PIP cells; assay: Cell uptake, cell surface binding and internalization in PSMA(+) PC3 PIP cells; format: cell-based, human

Chain of PSMA (Q04609 whole entry): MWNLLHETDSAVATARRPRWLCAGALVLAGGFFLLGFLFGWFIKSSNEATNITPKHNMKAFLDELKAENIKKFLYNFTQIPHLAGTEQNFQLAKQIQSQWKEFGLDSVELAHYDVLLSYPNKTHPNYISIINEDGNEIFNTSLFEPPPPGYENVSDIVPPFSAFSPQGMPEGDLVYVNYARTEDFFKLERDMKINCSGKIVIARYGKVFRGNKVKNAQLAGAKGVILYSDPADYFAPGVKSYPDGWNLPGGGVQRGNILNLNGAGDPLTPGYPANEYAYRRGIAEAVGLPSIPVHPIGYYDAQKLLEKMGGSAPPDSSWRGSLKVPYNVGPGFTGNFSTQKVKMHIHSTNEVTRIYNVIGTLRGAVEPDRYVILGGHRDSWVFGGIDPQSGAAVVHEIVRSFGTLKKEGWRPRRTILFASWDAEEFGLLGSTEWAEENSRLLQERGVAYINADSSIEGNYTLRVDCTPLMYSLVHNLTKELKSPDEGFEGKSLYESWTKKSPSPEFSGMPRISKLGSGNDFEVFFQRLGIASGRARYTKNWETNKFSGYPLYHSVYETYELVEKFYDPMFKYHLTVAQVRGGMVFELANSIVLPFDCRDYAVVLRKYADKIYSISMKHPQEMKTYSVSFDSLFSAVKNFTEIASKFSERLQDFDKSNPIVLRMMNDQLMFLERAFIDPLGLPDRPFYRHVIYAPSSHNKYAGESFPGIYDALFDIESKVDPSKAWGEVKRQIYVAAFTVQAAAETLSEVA

| SMILES | Ki ([2]; Table 6, given as range) [nM] | specific internalization [3] [% IA/10^6 cells] | other results |
| --- | --- | --- | --- |
| O=C(O)CC[C@H](NC(=O)N[C@@H](CCCCN(Cc1ccc(Br)cc1)C(=O)CCCCNC(=S)Nc1ccc(CC2CN(CC(=O)O)CCN(CC(=O)O)CCN(CC(=O)O)CCN2CC(=O)O)cc1)C(=O)O)C(=O)O (stereo partly drawn) [Ligand 1, (13S,17S)-8-(4-bromobenzyl)-7,15-dioxo-1-((4-((1,4,7,10-tetrakis(carboxymethyl)-1,4,7,10-tetraazacyclododecan-2-yl)methyl)phenyl)amino)-1-thioxo-2,8,14,16-tetraazanonadecane-13,17,19-tricarboxylic acid] |  |  | LogPoct/water [1]: −3.0 |
| O=C(O)CC[C@H](NC(=O)N[C@@H](CCCCN(Cc1ccc(Br)cc1)C(=O)CCCCNC(=O)CN1CCN(CC(=O)O)CCN(CC(=O)O)CCN(CC(=O)O)CC1)C(=O)O)C(=O)O [Ligand 2, (14S,18S)-9-(4-Bromobenzyl)-2,8,16-trioxo-1-(4,7,10-tris(carboxymethyl)-1,4,7,10-tetraazacyclododecan-1-yl)-3,9,15,17-tetraazaicosane-14,18,20-tricarboxylic acid] |  |  | LogPoct/water [1]: −3.53; IC50 ([2]; Table 1): 0.64 nM; Ki ([2]; Table 1): 1.28 nM |
| O=C(O)CC[C@H](NC(=O)N[C@@H](CCCCNC(=O)CCCCNC(=S)Nc1ccc(CC2CN(CC(=O)O)CCN(CC(=O)O)CCN(CC(=O)O)CCN2CC(=O)O)cc1)C(=O)O)C(=O)O (stereo partly drawn) [Ligand 3, (13S,17S)-7,15-dioxo-1-((4-((1,4,7,10-tetrakis(carboxymethyl)-1,4,7,10-tetraazacyclododecan-2-yl)methyl)phenyl)amino)-1-thioxo-2,8,14,16-tetraazanonadecane-13,17,19-tricarboxylic acid] |  |  | LogPoct/water [1]: −3.2; IC50 ([2]; Table 1): 2.16 nM; Ki ([2]; Table 1): 0.43 nM |
| O=C(O)CC[C@H](NC(=O)N[C@@H](CCCCN(Cc1ccc(I)cc1)C(=O)CCCCNC(=O)CN1CCN(CC(=O)O)CCN(CC(=O)O)CCN(CC(=O)O)CC1)C(=O)O)C(=O)O [Ligand L2, (14S,18S)-9-(4-iodobenzyl)-2,8,16-trioxo-1-(4,7,10-tris(carboxymethyl)-1,4,7,10-tetraazacyclododecan-1-yl)-3,9,15,17-tetraazaicosane-14,18,20-tricarboxylic acid] | 0.2 to 0.33 | 24.96 ± 0.90 | Specific Cell Surface Binding [3]: 29.23 ± 0.80 % IA/10^6 cells |
| O=C(O)CC[C@H](NC(=O)N[C@@H](CCCCN(Cc1ccc(Br)cc1)C(=O)CCCCCNC(=O)c1ccc(CNC(=O)CN2CCN(CC(=O)O)CCN(CC(=O)O)CCN(CC(=O)O)CC2)cc1)C(=O)O)C(=O)O [Ligand L3, (14S,18S)-9-(4-Bromobenzyl)-1,8,16-trioxo-1-(4-((2-(4,7,10-tris(carboxymethyl)-1,4,7,10-tetraazacyclododecan-1-yl)acetamido)methyl)phenyl)-2,9,15,17-tetraazaicosane-14,18,20-tricarboxylic acid] | 0.09 to 34 | 22.03 ± 0.60 | Specific Cell Surface Binding [3]: 36.65 ± 0.50 % IA/10^6 cells |
| O=C(O)CC[C@H](NC(=O)N[C@@H](CCCCN(Cc1ccc(Br)cc1)C(=O)CCCCCCC(=O)NCCCCNC(=O)c1ccc(CNC(=O)CN2CCN(CC(=O)O)CCN(CC(=O)O)CCN(CC(=O)O)CC2)cc1)C(=O)O)C(=O)O [Ligand L5, (21S,25S)-16-(4-Bromobenzyl)-1,8,15,23-tetraoxo-1-(4-((2-(4,7,10-tris(carboxymethyl)-1,4,7,10-tetraazacyclododecan-1-yl)acetamido)methyl)phenyl)-2,7,16,22,24-pentaazaheptacosane-21,25,27-tricarboxylic acid] | 0.46 to 0.63 | 22.03 ± 0.60 | Specific Cell Surface Binding [3]: 36.65 ± 0.50 % IA/10^6 cells |
| O=C(O)CC[C@H](NC(=O)N[C@@H](CCCCN(Cc1ccc(I)cc1)C(=O)CCCCCCC(=O)NCCCCNC(=O)c1ccc(CNC(=O)CN2CCN(CC(=O)O)CCN(CC(=O)O)CCN(CC(=O)O)CC2)cc1)C(=O)O)C(=O)O [Ligand L6, (21S,25S)-16-(4-Iodobenzyl)-1,8,15,23-tetraoxo-1-(4-((2-(4,7,10-tris(carboxymethyl)-1,4,7,10-tetraazacyclododecan-1-yl)acetamido)methyl)phenyl)-2,7,16,22,24-pentaazaheptacosane-21,25,27-tricarboxylic acid] | 0.35 to 0.93 |  |  |
| O=C(O)CC[C@H](NC(=O)N[C@@H](CCCCNC(=O)CCCCNC(=S)Nc1ccc(CC2CN(CC(=O)O)CCN(CC(=O)O)CCN(CC(=O)O)CCN2CC(=O)O)cc1)C(=O)O)C(=O)O (stereo partly drawn) [Ligand L7, (13S,17S)-7,15-dioxo-1-((4-((1,4,7,10-tetrakis(carboxymethyl)-1,4,7,10-tetraazacyclododecan-2-yl)methyl)phenyl)amino)-1-thioxo-2,8,14,16-tetraazanonadecane-13,17,19-tricarboxylic acid] | 0.29 to 0.81 |  |  |
| O=C(O)CC[C@H](NC(=O)N[C@@H](CCCCN(Cc1ccc(Br)cc1)C(=O)CCCCNC(=S)Nc1ccc(CC2CN(CC(=O)O)CCN(CC(=O)O)CCN(CC(=O)O)CCN2CC(=O)O)cc1)C(=O)O)C(=O)O (stereo partly drawn) [Ligand L8, (13S,17S)-8-(4-bromobenzyl)-7,15-dioxo-1-((4-((1,4,7,10-tetrakis(carboxymethyl)-1,4,7,10-tetraazacyclododecan-2-yl)methyl)phenyl)amino)-1-thioxo-2,8,14,16-tetraazanonadecane-13,17,19-tricarboxylic acid] | 0.08 to 0.16 | 20.06 |  |
| O=C(O)CC[C@H](NC(=O)N[C@@H](CCCCN(Cc1ccc(Br)cc1)C(=O)CCCCNC(=O)CCC(C(=O)O)N1CCN(CC(=O)O)CCN(CC(=O)O)CCN(CC(=O)O)CC1)C(=O)O)C(=O)O (stereo partly drawn) [Ligand L9, (3S,7S)-12-(4-Bromobenzyl)-5,13,19-trioxo-22-(4,7,10-tris(carboxymethyl)-1,4,7,10-tetraazacyclododecan-1-yl)-4,6,12,18-tetraazadocosane-1,3,7,22-tetracarboxylic acid] | 0.02 to 0.05 | 7.80 |  |
| O=C(O)CC[C@H](NC(=O)N[C@@H](CCCCN(Cc1ccc(Br)cc1)C(=O)c1ccc(CNC(=O)CN2CCN(CC(=O)O)CCN(CC(=O)O)CCN(CC(=O)O)CC2)cc1)C(=O)O)C(=O)O [Ligand L12, (((S)-5-(N-(4-Bromobenzyl)-4-((2-(4,7,10-tris(carboxymethyl)-1,4,7,10-tetraazacyclododecan-1-yl)acetamido)methyl)benzamido)-1-carboxypentyl)carbamoyl)-L-glutamic acid] | 0.22 to 4.03 |  |  |
| O=C(O)CC[C@H](NC(=O)N[C@@H](CCCCN(Cc1ccc(Br)nc1)C(=O)CCCCNC(=O)CN1CCN(CC(=O)O)CCN(CC(=O)O)CCN(CC(=O)O)CC1)C(=O)O)C(=O)O [Ligand L13, (14S,18S)-9-((6-Bromopyridin-3-yl)methyl)-2,8,16-trioxo-1-(4,7,10-tris(carboxymethyl)-1,4,7,10-tetraazacyclododecan-1-yl)-3,9,15,17-tetraazaicosane-14,18,20-tricarboxylic acid] | 0.23 to 8.1 |  |  |
| O=C([O-])CN1CCN(CC(=O)[O-])CCN(CC(=O)NCCCCC(=O)N(CCCC[C@H](NC(=O)N[C@@H](CCC(=O)O)C(=O)O)C(=O)O)Cc2ccc(Br)cc2)CCN(CC(=O)[O-])CC1.[Lu+3] [Lu-L1] |  |  | fold improvement in binding affinity over L1 [2]: 3 fold |
